Assay results: the supplement of paper PMC4862054

Columns and labels:
Test in all cases: normalised response (% of control), CellTiter-Glo; higher = more viable cells (100 = DMSO, 0 = benzethonium chloride kill control)
Settings in all cases: incubation time: 72 h
[1] = test system: HCC1599
Method in brief: (§1)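 Two readouts were taken after 72 h: CellTox Green fluorescence (485/520 nm) first, then CellTiter-Glo luminescence after 10 min at room temperature. Breast cancer cell lines had been seeded as 20 µl suspension into 384-well plates holding compound at 5 concentrations in 10-fold steps across a compound-specific 10,000-fold range. Each value is a normalised signal at a single concentration, with plates scaled to 0.1 % DMSO (100) and a positive kill control (0).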

[2] = test system: CAL-148
Method in brief: as §1

[3] = test system: MDA-MB-468
Method in brief: as §1

[4] = test system: CAL-120
Method in brief: as §1

[5] = test system: CAL-51
Method in brief: as §1

[6] = test system: BT-549
Method in brief: as §1

[7] = test system: BT-474
Method in brief: as §1

[8] = test system: Hs578T
Method in brief: as §1

[9] = test system: MDA-MB-436
Method in brief: as §1

[10] = test system: DU-4475
Method in brief: as §1

[11] = test system: CAL-85-1
Method in brief: as §1

[12] = test system: MFM-223
Method in brief: as §1

[13] = test system: HCC1937
Method in brief: as §1

[14] = test system: MDA-MB-231
Method in brief: as §1

[15] = test system: MDA-MB-453
Method in brief: as §1

[16] = test system: SK-BR-3
Method in brief: as §1

[17] = test system: HCC1143
Method in brief: as §1

[18] = test system: HDQ-P1
Method in brief: as §1

[19] = test system: MCF-10A
Method in brief: as §1

Structure (SMILES) | normalised response [1] [%] | normalised response [2] [%] | normalised response [3] [%] | normalised response [4] [%] | normalised response [5] [%] | normalised response [6] [%] | normalised response [7] [%] | normalised response [8] [%] | normalised response [9] [%] | normalised response [10] [%] | normalised response [11] [%] | normalised response [12] [%] | normalised response [13] [%] | normalised response [14] [%] | normalised response [15] [%] | normalised response [16] [%] | normalised response [17] [%] | normalised response [18] [%] | normalised response [19] [%]
Cn1cc(C2=Nc3cc(NC(=O)C(N)C4CCCCC4)cc4c3C2=CNNC4=O)cn1 (configuration not stated) (10 nM) | 93.4 | 87.3 | 90.6 | 90.9 | 134 | 95.2 | 94 | 94.3 | 89.4 | 95.3 | 93.3 | 90.4 | 96.2 | 91.2 | 91.7 | 77.2 | 90.4 | 91.7 | 84.6
CC[C@@H]1C(=O)OC[C@@H]1Cc1cncn1C [Pilocarpine] (40 nM) | 81 | 96.8 | 94.7 | 94.2 | 127 | 96.1 | 94.3 | 98.1 | 94 | 102 | 103 | 96.1 | 97.6 | 97.4 | 106 | 89.9 | 103 | 98.3 | 98.1
C[C@]1(O)C[C@@H](c2nc(-c3ccc4ccc(-c5ccccc5)nc4c3)c3c(N)nccn32)C1 [Linsitinib] (1 nM) | 106 | 98 | 93.9 | 97.7 | 109 | 92.6 | 98.2 | 93.2 | 96.4 | 98 | 92.8 | 87.5 | 91.5 | 95.3 | 90.9 | 91.5 | 91.7 | 105 | 89.5
C[C@]12CC[C@@H]3c4ccc(OC(=O)N(CCCl)CCCl)cc4CC[C@H]3[C@@H]1CC[C@@H]2O [Estramustine] (10 nM) | 103 | 84.1 | 97.6 | 103 | 90.1 | 98.6 | 97 | 97 | 93.3 | 91.3 | 91.2 | 87.7 | 96 | 95.1 | 88.8 | 94.9 | 98.5 | 104 | 91.1
CC(=O)c1c(C)c2cnc(Nc3ccc(N4CCNCC4)cn3)nc2n(C2CCCC2)c1=O [Palbociclib] (1 nM) | 96.1 | 88.4 | 91.9 | 95 | 118 | 100 | 89.6 | 95.7 | 101 | 97.8 | 97.8 | 90.3 | 101 | 91.6 | 99.2 | 86 | 88 | 90.1 | 89.3
CC1(C)CCC(CN2CCN(c3ccc(C(=O)NS(=O)(=O)c4ccc(NCC5CCOCC5)c([N+](=O)[O-])c4)c(Oc4cnc5[nH]ccc5c4)c3)CC2)=C(c2ccc(Cl)cc2)C1 [ABT-199] (1 nM) | 89.5 | 100 | 94.1 | 98.9 | 122 | 98.9 | 94.8 | 104 | 98.5 | 98.2 | 99.5 | 96.8 | 106 | 97.4 | 101 | 95.4 | 98.6 | 101 | 98.3
CC(=O)O[C@@]12CO[C@@H]1C[C@H](O)[C@@]1(C)C(=O)[C@H](O)C3=C(C)[C@@H](OC(=O)[C@H](O)[C@@H](NC(=O)OC(C)(C)C)c4ccccc4)C[C@@](O)([C@@H](OC(=O)c4ccccc4)[C@H]21)C3(C)C [Docetaxel] (1 nM) | 97.4 | 84.6 | 50.2 | 94.6 | 115 | 60.5 | 84.2 | 76.6 | 81.5 | 90.6 | 79.9 | 91.3 | 83.5 | 87.8 | 104 | 68.5 | 71.5 | 90 | 73.2
Oc1ncnc2[nH]ncc12 [Allopurinol] (10 nM) | 104 | 107 | 99 | 99 | 98.1 | 101 | 102 | 97.5 | 96.5 | 106 | 98.6 | 108 | 99.2 | 99.6 | 109 | 106 | 103 | 99.5 | 107
Cc1ccc([N+](=O)[O-])cc1S(=O)(=O)N(C)/N=C/c1cnc2ccc(Br)cn12 [PIK-75] (10 nM) | 96.9 | 90.3 | 82.2 | 86.8 | 79.1 | 101 | 83.5 | 91.5 | 99.1 | 97 | 89.3 | 92.7 | 90.3 | 88.9 | 79.2 | 74.4 | 90.2 | 95.5 | 108
COc1cc(F)c(F)c(Nc2ccc(I)cc2F)c1NS(=O)(=O)C1(C[C@H](O)CO)CC1 [Refametinib] (1 nM) | 99.5 | 101 | 92.7 | 101 | 75.2 | 98.6 | 91.2 | 92.9 | 91.6 | 104 | 97 | 94.4 | 93.6 | 100 | 87.9 | 91.2 | 93.6 | 92.8 | 79.4
O=C1CN2Cc3c(ccc(Cl)c3Cl)N=C2N1 [Anagrelide] (10 nM) | 100 | 93.9 | 100 | 96.5 | 115 | 101 | 95.5 | 97.5 | 95.2 | 101 | 93.8 | 99.2 | 94.8 | 97 | 102 | 94.2 | 103 | 98.7 | 103
COc1cc(F)c(F)c(Nc2ccc(I)cc2F)c1NS(=O)(=O)C1(C[C@H](O)CO)CC1 [Refametinib] (10 nM) | 109 | 86.9 | 87.2 | 99.5 | 130 | 96.5 | 95.5 | 96.5 | 90.7 | 92 | 90.7 | 87.9 | 97.9 | 94.4 | 101 | 79.6 | 95.8 | 89.2 | 58.5
C[C@]1(O)C[C@@H](c2nc(-c3ccc4ccc(-c5ccccc5)nc4c3)c3c(N)nccn32)C1 [Linsitinib] (10 nM) | 78.5 | 85.6 | 90.8 | 102 | 92.4 | 94.4 | 93.7 | 96.1 | 89.2 | 94.9 | 95 | 92.8 | 101 | 94.8 | 99.3 | 76.1 | 96.1 | 99 | 88.9
CC1=C2C[C@H]3[C@@H](CC=C4C[C@@H](O)CC[C@@]43C)[C@@H]2CC[C@]12O[C@@H]1C[C@H](C)CN[C@H]1[C@H]2C [Cyclopamine] (10 nM) | 116 | 117 | 110 | 102 | 110 | 95.6 | 104 | 105 | 105 | 109 | 98 | 113 | 104 | 105 | 109 | 120 | 105 | 105 | 114
Cc1ccc([N+](=O)[O-])cc1S(=O)(=O)N(C)/N=C/c1cnc2ccc(Br)cn12 [PIK-75] (1 nM) | 108 | 96.4 | 94.9 | 92.4 | 73.8 | 99 | 89.6 | 97.9 | 88.9 | 95.6 | 92.2 | 92.2 | 94.7 | 92.9 | 100 | 99.6 | 93.8 | 98.8 | 95
CC(=O)N(O)CCCCCNC(=O)CCC(=O)N(O)CCCCCNC(=O)CCC(=O)N(O)CCCCCN [Deferoxamine] (10 nM) | 110 | 88.3 | 98.2 | 97.4 | 87.7 | 106 | 94.5 | 97 | 96.3 | 92.3 | 93 | 96.9 | 101 | 91.5 | 90.2 | 99 | 102 | 105 | 91.4
CC(C)(C)c1cnc(CSc2cnc(NC(=O)C3CCNCC3)s2)o1 [SNS-032] (10 nM) | 107 | 98.5 | 96.7 | 96.6 | 65.3 | 95.1 | 93.4 | 102 | 101 | 99.2 | 109 | 97.2 | 97.8 | 96.5 | 99.6 | 95.8 | 89.7 | 92.1 | 105
C[C@]12CC[C@@H]3c4ccc(OC(=O)N(CCCl)CCCl)cc4CC[C@H]3[C@@H]1CC[C@@H]2O [Estramustine] (1 nM) | 109 | 80.3 | 88.2 | 97.6 | 118 | 97 | 95.3 | 95.5 | 106 | 89.3 | 95 | 88 | 93.1 | 94.7 | 94.6 | 90 | 96.4 | 100 | 86.5
